Measurements: PMC11428593 (Antibiotics, 2024)
≈ marks a conversion by molar mass, not a printed value.

Experiments:
Type in all cases: cell-based, Staphylococcus aureus
[1] = tested on: MRSA USA300LAC; assay: MIC by broth microdilution (CLSI); conditions: Staphylococcus aureus, MRSA, 16 h
Method: The MIC values of the alkyl pyridinol derivatives against the S. aureus strain ATCC 25923, MRSA strains ATCC 33591, ATCC BAA-44, and USA300LAC, as well as the P. aeruginosa strain ATCC 27853, were determined by following the CLSI guidelines for the broth microdilution antibiotic sensitivity testing protocol. In brief, the overnight cultures were diluted into Mueller Hinton Broth (MHB) to a final inoculum concentration of 5 × 10^5 CFU/mL (O.D600nm = 0.00001) and dispensed into a 96-well polystyrene plate (Alkali Scientific, Fort Lauderdale, FL, USA). Alkyl pyridine compounds were diluted into inoculated MHB to the indicated concentrations from stock solutions that would allow for DMSO concentrations below 5%, resulting in a total volume of 200 μL per well. The plates were subsequently incubated at 37 °C for 16 h at 300 rpm. The MIC values, which are defined as the lowest compound concentration that inhibited growth, were determined from three biological replicates.

[2] = tested on: S. aureus strain USA300LAC; assay: Checkerboard assay with JC-01-074 (FIC index); conditions: MHB, 37 °C, 20 h, antibiotic combined with JC-01-074
Method: Therefore, we tested whether the membrane-disrupting effects of JC-01-074 could increase the sensitivity of the S. aureus strain USA300LAC to antibiotics of different classes; for instance, by facilitating their uptake into the cytoplasm. […] Antibiotic concentrations were prepared by the microbroth dilution in MHB based on their MIC values (Table 1) to obtain the final concentrations as outlined in the 96-well plate scheme for each antibiotic tested (Supplementary Figure S3). Overnight USA300LAC cultures were diluted to 5 × 10^5 CFU/mL in MHB, and the growth was recorded at 37 °C and 200 rpm for 20 h in the presence and absence of the indicated antibiotic.
FICs were calculated as the ratio of the MIC of the antimicrobial in combination with the MIC of the antimicrobial alone. Interactions were categorized as synergistic (<0.5), additive or no interaction (0.5–2), and antagonistic (>2). FICs were calculated from three biological replicates.
Following previous studies, the checkerboard assay was employed to determine whether JC-01-074 had synergistic effects in combination with members of different antibiotic classes. The indicated antibiotics tested in combination were first serially diluted two-fold in MHB on a longitudinal axis in a 96-well polystyrene plate. JC-01-074 was then serially diluted two-fold across the 96-well plate horizontal axis. The plates were inoculated with USA300LAC to a final inoculum concentration of 5 x10^5 CFU/mL (O.D.600nm = 0.0001) and incubated overnight at 37 °C for 20 h. The growth was measured at 600 nm in a Tecan 200 Infinite Pro microplate reader. The fractional inhibitory concentration was calculated as follows:FIC = MICJC-01-074 + antibiotics/[…]
The classification of interactions was based on the FIC index: interactions were categorized as synergistic (FIC ≤ 0.5), additive/no interaction (FIC 0.5–2.0), and antagonistic (FIC > 2.0).

[3] = tested on: S. aureus strain USA300LAC established biofilm; assay: Biofilm eradication assay (crystal violet); conditions: at or below 4× MIC, 24 h, in words
Method: (§1) The establishment of a bacterial biofilm usually begins with pathogen attachment to biotic and abiotic surfaces, and S. aureus is notorious for its ability to form biofilms on surfaces, such as implants and catheters, which presents a unique treatment challenge.
(§2) Overnight cultures of S. aureus strain USA300LAC were diluted into fresh TSB to an OD600nm = 0.001 and incubated aerobically at 37 °C until the mid-log phase. (A) To detect effects on biofilm formation, cultures were diluted to an OD600nm = 0.0001 in the presence and absence of JC-01-074 and vancomycin at concentrations of 0.5–4× MIC, respectively. (B) To detect effects on biofilm eradication, cultures were diluted to an OD600nm = 0.0001 and incubated under static conditions for 24 h, after which planktonic cells were removed, and the preformed biofilms were washed twice with PBS. […] Biofilm mass was quantified after 20 h via crystal violet staining. One-way ANOVA, Dunnett’s multiple-comparison test (* p < 0.05, ** p < 0.01); (n = 3, ±S.D.).
The overnight USA300LAC cultures were diluted 1000-fold into the TSB media and incubated under shaking conditions at 37 °C until the mid-log phase. […] After 24 h of incubation, biofilm eradication was assessed via CV staining at 595 nm in a Tecan 200 Infinite Pro microplate reader (Tecan, Morgan Hill, CA, USA).

[4] = tested on: S. aureus strain USA300LAC biofilm; assay: Inhibition of biofilm formation (crystal violet); conditions: up to 4× MIC, in words
Method: as §1, §2
The overnight USA300LAC cultures were diluted 1000-fold into the fresh TSB media and incubated under shaking conditions at 37 °C until the mid-log phase. The cultures were subsequently diluted to approximately 4 × 10^6 CFU/mL and dispended into 96-well polystyrene plates (Alkali Scientific, Fort Lauderdale, FL, USA) containing DMSO (control), vancomycin (0.5–4× MIC), or the indicated alkyl pyridinol compounds (0.5–4× MIC) and sealed with a breath-easy membrane (Fisherbrand, Waltham, MA, USA). The peripheral wells were filled with PBS to limit evaporation. The plates were incubated without agitation at 37 °C for 24 h, following which the planktonic cells were removed. The biofilms were washed twice with PBS, stained with 0.1% crystal violet (CV) for 15 min, and washed again twice with PBS to remove the unbound CV dye. CV bound to biofilm cells was extracted with 30% (v/v) glacial acetic acid, and the O.D.595nm was determined.

## CN[C@H](CC(C)C)C(=O)N[C@H]1C(=O)N[C@@H](CC(N)=O)C(=O)N[C@H]2C(=O)N[C@H]3C(=O)N[C@H](C(=O)N[C@H](C(=O)O)c4cc(O)cc(O)c4-c4cc3ccc4O)[C@H](O)c3ccc(c(Cl)c3)Oc3cc2cc(c3O[C@@H]2O[C@H](CO)[C@@H](O)[C@H](O)[C@H]2O[C@H]2C[C@](C)(N)[C@H](O)[C@H](C)O2)Oc2ccc(cc2Cl)[C@H]1O [Vancomycin, reference compound]
[1]
  MIC: 1 µg/mL (≈ 0.69 µM)
[2]
  interaction with JC-01-074 (sum of FIC values): additive (additive/no interaction (FIC 0.5–2.0))
[3]
  eradication of established biofilms: neither JC-01-074 nor vancomycin successfully reduced established biofilms
[4]
  inhibition of biofilm formation: failed to significantly inhibit biofilm formation
